# Measurements: patent US7662896B2, “Fluorochemical sulfonamide surfactants” (3M Innovative Properties Company, priority 1999, dated 2010)
# Tests used:
# [1] = Surface tension in water (Test Procedure I, Kruss K12 Tensiometer); format: physicochemical; settings: for Surface Tension (dynes/cm) at Various Surfactant Concentrations: 20 ppm: 20 ppm in water; for Surface Tension (dynes/cm) at Various Surfactant Concentrations: 200 ppm: 200 ppm in water; for Surface Tension (dynes/cm) at Various Surfactant Concentrations: 2000 ppm: 2000 ppm in water; for Surface Tension (dynes/cm) at Various Surfactant Concentrations: 23 ppm: 23 ppm in water; for Surface Tension (dynes/cm) at Various Surfactant Concentrations: 83 ppm: 83 ppm in water; for Surface Tension (dynes/cm) at Various Surfactant Concentrations: 164 ppm: 164 ppm in water; for Surface Tension (dynes/cm) at Various Surfactant Concentrations: 273 ppm: 273 ppm in water; for Surface Tension (dynes/cm) at Various Surfactant Concentrations: 421 ppm: 421 ppm in water; for Surface Tension (dynes/cm) at Various Surfactant Concentrations: 617 ppm: 617 ppm in water; for Surface Tension (dynes/cm) at Various Surfactant Concentrations: 875 ppm: 875 ppm in water; for Surface Tension (dynes/cm) at Various Surfactant Concentrations: 1032 ppm: 1032 ppm in water
# Procedure: Test Procedure I—Surface Tension Determination
# All surface tensions were determined using a Kruss K12 Tensiometer. […] The program was run using a Wilhelmy platinum plate (PL12) and glass sample vessel (GL7).
# [2] = Contact angle measurement on glass cover slips (Test Procedure II); format: physicochemical
# Procedure: Test Procedure II—Contact Angle Measurement
# Glass cover slips were rinsed with HPLC water and allow to air dry. The surfactant to be tested was mixed at 0.01 weight % with HPLC water. The pH was measured and if below 9, the pH was adjust to 9 by adding several drops of 1% NH4OH. The surface tension of the surfactant solution was determined using Test Procedure I.
# A clean, dry glass cover slip was placed in the clamp and lower to ˜1 mm above the surface of the surfactant/water solution. Velocity search was set at 6 mm/min and velocity measure was set at 4 mm/min. Immersion depth was at least 10 mm, depending on the size of the cover slip. Advancing and receding contact angles were measured with 3 cycles. The cover slip was allowed to dry in the clamp, above the solution, for ten minutes. Advancing and receding contact angles were measured a second time with 3 cycles.
# [3] = Wetting and film characterization on glass surface (Test Procedure III); format: physicochemical
# Procedure: Test Procedure III—Wetting and Film Characterization on Glass Surface
# A solution of the surfactant to be tested was prepared at 0.01% by weight in HPLC grade water. The surfactant solution pH was measured and if necessary, pH was adjusted to 9 by adding several drops of 1% NH4OH. Glass plates were cleaned using Windex and a squeegee. Cleaned plates placed on top of 5.1 cm by 5.1 cm by 10.2 cm wood supports, which were laid out in a parallel arrangement. Two glass plates were used for each surfactant solution and laid out adjacent to each other. Surfactant solution (10 drops) was placed on each of the two plates and observed for solution hydrophilic or hydrophobic characteristics. The solution was considered hydrophilic if it was spread out and hydrophobic if it beaded up. The surfactant solutions were allowed to air dry and the resulting film on the glass plate observed for solution autophilic or autophobic properties. The solution was considered autophilic if it dried as a sheet and autophobic if it dried in separate puddles. […] On one of the plates with the dried surfactant film was placed 10 drops of the same surfactant solution on top of the area with the dry film. […] On the other plate was placed 10 drops of HPLC grade water on top of the area with the dry film, and hydrophilic or hydrophobic characteristics were observed.
# [4] = Dynamic surface tension of water (Kruss Bubble Pressure Tensiometer BP2); format: physicochemical; settings: 0.5 weight % in water; for Dynamic Surface Tension (mN/m) at Indicated Bubble Frequency (Hz): 0.01: 0.01 Hz; for Dynamic Surface Tension (mN/m) at Indicated Bubble Frequency (Hz): 0.5: 0.5 Hz; for Dynamic Surface Tension (mN/m) at Indicated Bubble Frequency (Hz): 1.0: 1.0 Hz; for Dynamic Surface Tension (mN/m) at Indicated Bubble Frequency (Hz): 5.0: 5.0 Hz
# Procedure: The dynamic surface tension of water containing 0.5 weight % FC-171 (C8F17SO2N(Et)(CH2CH2O)7.5CH3, for which the surface tension was measured in Comparative Example C2, was measured with a Kruss Bubble Pressure Tensiometer, Model BP2 (Kruss USA, Charlotte, N.C.). The results are shown in Table 11.
# [5] = tested on: SPF-bred Sprague Dawley rats; assay: 28-day oral toxicity study by daily gavage in the rat; format: in vivo; settings: 28 days daily oral gavage; 3 (C8), 10 (C6), 30 (C4) mg/kg body weight/day
# Procedure: (§1) A 28-day oral toxicity study with perfluorooctanesulfonate (C8F17SO3^−) was conducted by daily gavage in the rat followed by 14 and 28 day recovery periods. The dose levels for the study were selected to be 0 mg/kg body weight/day for species control, and 3 mg/kg body weight/day for potassium perfluorooctanesulfonate. The potassium perfluorooctanesulfonate was formulated in 1% aqueous carboxymethyl cellulose and administered daily for 28 days by oral gavage to SPF-bred Sprague Dawley rats. A vehicle control group and a treated group were tested, each consisting of 8 male and 8 female rats. An extra 3 rats per sex per group were allowed 14 days of recovery, and another 3 rats per sex per group were allowed 28 days of recovery.
# [6] = Amount of perfluoroalkylsulfonate in male rat liver tissue (HPLC/ESMS/MS); format: in vivo; settings: for Amount (ppm) of Sulfonate Day 1N* / Amount (ppm) of Sulfonate Day 1 / Amount (ppm) of Sulfonate Day 14N* / Amount (ppm) of Sulfonate Day 14 / Amount (ppm) of Sulfonate Day 28N* / Amount (ppm) of Sulfonate Day 28: male rat liver; for Amount (ppm) of Sulfonate Day 1N*: normalized to a feeding level of 3 mg/kg body weight per day; for Amount (ppm) of Sulfonate Day 1: day 1 after 28 day dosing at 3 (C8), 10 (C6), 30 (C4) mg/kg/day; for Amount (ppm) of Sulfonate Day 14N* / Amount (ppm) of Sulfonate Day 28N*: normalized to 3 mg/kg body weight per day; for Amount (ppm) of Sulfonate Day 14: day 14 of recovery; for Amount (ppm) of Sulfonate Day 28: day 28 of recovery
# Procedure: as §1
# Extracted liver tissue samples from the sacrificed rats of the study were homogenized and extracted using an ion-pairing extraction procedure. The extracts were quantitatively analyzed using high-pressure liquid chromatography/electrospray tandem mass spectroscopy (HPLC/ESMS/MS) and evaluated.
# [7] = 0.01 weight % solution, glass with a film of dried surfactant solution
# [8] = 0.01 weight % surfactant solution in HPLC water
# [9] = 0.01 weight % solution air dried on glass
molecule,measurement,setting,value
"CN(CC(=O)[O-])S(=O)(=O)C(F)(F)C(F)(F)C(F)(F)C(F)(F)C(F)(F)C(F)(F)F.[K+] [C6F13SO2N(Et)CH2CO2K, C6F13SO2N(CH3)CH2CO2K]",Surface Tension (dynes/cm) at Various Surfactant Concentrations: 20 ppm,[1],48.2 dynes/cm
same,Surface Tension (dynes/cm) at Various Surfactant Concentrations: 200 ppm,[1],30.8 dynes/cm
same,Surface Tension (dynes/cm) at Various Surfactant Concentrations: 2000 ppm,[1],15.5 dynes/cm
"CN(CC(=O)[O-])S(=O)(=O)C(F)(F)C(F)(F)C(F)(F)C(F)(F)F.[K+] [C4F9SO2N(Et)CH2CO2K, C4F9SO2N(CH3)CH2CO2K]",Surface Tension (dynes/cm) at Various Surfactant Concentrations: 20 ppm,[1],68.5 dynes/cm
same,Surface Tension (dynes/cm) at Various Surfactant Concentrations: 200 ppm,[1],57.4 dynes/cm
same,Surface Tension (dynes/cm) at Various Surfactant Concentrations: 2000 ppm,[1],44.4 dynes/cm
"CCN(CC(=O)[O-])S(=O)(=O)C(F)(F)C(F)(F)C(F)(F)C(F)(F)C(F)(F)C(F)(F)C(F)(F)C(F)(F)F.[K+] [FC-129, C8F17SO2N(C2H5)CH2CO2^−K^+]",Surface Tension (dynes/cm) at Various Surfactant Concentrations: 20 ppm,[1],49 dynes/cm
same,Surface Tension (dynes/cm) at Various Surfactant Concentrations: 23 ppm,[1],29.5 dynes/cm
same,Surface Tension (dynes/cm) at Various Surfactant Concentrations: 83 ppm,[1],29 dynes/cm
same,Surface Tension (dynes/cm) at Various Surfactant Concentrations: 164 ppm,[1],24 dynes/cm
same,Surface Tension (dynes/cm) at Various Surfactant Concentrations: 200 ppm,[1],23 dynes/cm
same,Surface Tension (dynes/cm) at Various Surfactant Concentrations: 273 ppm,[1],17.5 dynes/cm
same,Surface Tension (dynes/cm) at Various Surfactant Concentrations: 421 ppm,[1],16 dynes/cm
same,Surface Tension (dynes/cm) at Various Surfactant Concentrations: 617 ppm,[1],15.5 dynes/cm
same,Surface Tension (dynes/cm) at Various Surfactant Concentrations: 875 ppm,[1],16 dynes/cm
same,Surface Tension (dynes/cm) at Various Surfactant Concentrations: 1032 ppm,[1],16.5 dynes/cm
same,Surface Tension (dynes/cm) at Various Surfactant Concentrations: 2000 ppm,[1],17 dynes/cm
same,Advancing CA on Dried Surfactant,[2]; [7],64.6 °
same,Receding CA on Dried Surfactant,[2]; [7],12.2 °
same,Advancing CA on Clean Glass,[2]; [8],61.6 °
same,Receding CA on Clean Glass,[2]; [8],7 °
same,Dried film clarity,[3]; [9],clear
same,Dried film: autophilic or autophobic,[3]; [9],autophilic
same,Solution on clean glass: hydrophilic or hydrophobic,[3]; 0.01 weight % solution in HPLC grade water,hydrophobic
same,Characteristic the dried film gave to water and to the surfactant solution,[3]; 10 drops placed on the dried film,hydrophilic
"CCN(CCOCCOCCOCCOCCOCCOCCOC)S(=O)(=O)C(F)(F)C(F)(F)C(F)(F)C(F)(F)C(F)(F)C(F)(F)C(F)(F)C(F)(F)F [FC-171, C8F17SO2N(C2H5)(CH2CH2O)7CH3]",Surface Tension (dynes/cm) at Various Surfactant Concentrations: 23 ppm,[1],33.5 dynes/cm
same,Surface Tension (dynes/cm) at Various Surfactant Concentrations: 83 ppm,[1],21 dynes/cm
same,Surface Tension (dynes/cm) at Various Surfactant Concentrations: 164 ppm,[1],20.5 dynes/cm
same,Surface Tension (dynes/cm) at Various Surfactant Concentrations: 273 ppm,[1],19.5 dynes/cm
same,Surface Tension (dynes/cm) at Various Surfactant Concentrations: 421 ppm,[1],19 dynes/cm
same,Surface Tension (dynes/cm) at Various Surfactant Concentrations: 617 ppm,[1],19 dynes/cm
same,Surface Tension (dynes/cm) at Various Surfactant Concentrations: 875 ppm,[1],19 dynes/cm
same,Surface Tension (dynes/cm) at Various Surfactant Concentrations: 1032 ppm,[1],19 dynes/cm
same,Dynamic Surface Tension (mN/m) at Indicated Bubble Frequency (Hz): 0.01,[4],51 mN/m
same,Dynamic Surface Tension (mN/m) at Indicated Bubble Frequency (Hz): 0.5,[4],67 mN/m
same,Dynamic Surface Tension (mN/m) at Indicated Bubble Frequency (Hz): 1.0,[4],70 mN/m
same,Dynamic Surface Tension (mN/m) at Indicated Bubble Frequency (Hz): 5.0,[4],71 mN/m
"O=S(=O)([O-])C(F)(F)C(F)(F)C(F)(F)C(F)(F)C(F)(F)C(F)(F)C(F)(F)C(F)(F)F.[K+] [Example C8F17SO3K, potassium perfluorooctanesulfonate]",Surface Tension (dynes/cm) at Various Surfactant Concentrations: 10 ppm,[1]; 10 ppm in water,67.7 dynes/cm
same,Surface Tension (dynes/cm) at Various Surfactant Concentrations: 100 ppm,[1]; 100 ppm in water,54.1 dynes/cm
same,Surface Tension (dynes/cm) at Various Surfactant Concentrations: 1000 ppm,[1]; 1000 ppm in water,33.1 dynes/cm
same,Observed effects in treated rats,[5],"decreased body weight, decreased blood cholesterol, increased liver size, and hepatocyte hypertrophy"
same,Amount (ppm) of Sulfonate Day 1N*,[6],419 ppm
same,Amount (ppm) of Sulfonate Day 1,[6],419 ± 86 ppm
same,Amount (ppm) of Sulfonate Day 14N*,[6],309 ppm
same,Amount (ppm) of Sulfonate Day 14,[6],309 ± 34 ppm
same,Amount (ppm) of Sulfonate Day 28N*,[6],237 ppm
same,Amount (ppm) of Sulfonate Day 28,[6],237 ± 25 ppm
C4F9SO2N(CH3)(CH2CH2O)7.5CH3 [Example 1],Surface Tension (dynes/cm) at Various Surfactant Concentrations: 23 ppm,[1],31 dynes/cm
same,Surface Tension (dynes/cm) at Various Surfactant Concentrations: 83 ppm,[1],24 dynes/cm
same,Surface Tension (dynes/cm) at Various Surfactant Concentrations: 164 ppm,[1],23 dynes/cm
same,Surface Tension (dynes/cm) at Various Surfactant Concentrations: 273 ppm,[1],22.5 dynes/cm
same,Surface Tension (dynes/cm) at Various Surfactant Concentrations: 421 ppm,[1],22 dynes/cm
same,Surface Tension (dynes/cm) at Various Surfactant Concentrations: 617 ppm,[1],21.5 dynes/cm
same,Surface Tension (dynes/cm) at Various Surfactant Concentrations: 875 ppm,[1],20 dynes/cm
same,Surface Tension (dynes/cm) at Various Surfactant Concentrations: 1032 ppm,[1],20 dynes/cm
same,Surface tension in water compared with the C8F17 analog (in words),"[1]; water, plotted against concentration in FIGS. 3-5, 7, 8",very similar to that found when using the C8F17 segment
same,Dynamic Surface Tension (mN/m) at Indicated Bubble Frequency (Hz): 0.01,[4],21 mN/m
same,Dynamic Surface Tension (mN/m) at Indicated Bubble Frequency (Hz): 0.5,[4],22 mN/m
same,Dynamic Surface Tension (mN/m) at Indicated Bubble Frequency (Hz): 1.0,[4],22.5 mN/m
same,Dynamic Surface Tension (mN/m) at Indicated Bubble Frequency (Hz): 5.0,[4],23 mN/m
"O=S(=O)(O)C(F)(F)C(F)(F)C(F)(F)C(F)(F)C(F)(F)C(F)(F)F [C6F13SO3^−, perfluorohexanesulfonate]",Observed effects in treated rats,[5],"comparable, but less persistent than those of Comparative Example C22"
same,Factor lower than C8F17SO3^− in liver,[6]; 28 days following completion of feeding,6.5
same,Factor lower than C8F17SO3^− in liver,"[6]; 28 days following completion of feeding, normalized to the same feeding levels",21.5
same,Factor lower than C8F17SO3^− in liver,[6]; immediately following completion of feeding,1.3
same,Amount (ppm) of Sulfonate Day 1N*,[6],98 ppm
same,Amount (ppm) of Sulfonate Day 1,[6],327 ± 52 ppm
same,Amount (ppm) of Sulfonate Day 14N*,[6],19 ppm
same,Amount (ppm) of Sulfonate Day 14,[6],61.9 ± 11.7 ppm
same,Amount (ppm) of Sulfonate Day 28N*,[6],11 ppm
same,Amount (ppm) of Sulfonate Day 28,[6],36.3 ± 7.4 ppm
